pEC50, pKi: −log10 of the molar value.
Assays:
Type in all cases: cell-based
[1] = biological target: T1, Transient receptor potential cation channel subfamily V member 1 (Homo sapiens, UniProt Q8NER1); test: Agonist activity at human TRPV1 expressed in CHO cells assessed as 45Ca2+ uptake after 20 mins by liquid scintillation counting analysis; conditions: for EC50: cho; for pEC50: read-out: EC50
[2] = biological target: T1, Transient receptor potential cation channel subfamily V member 1; test: Antagonist activity at human TRPV1 expressed in CHO cells assessed as inhibition of RTX-induced 45Ca2+ uptake after 20 mins by liquid scintillation counting analysis; conditions: for Ki: cho; for pKi: read-out: Ki
[3] = biological target: T1, Transient receptor potential cation channel subfamily V member 1; test: Displacement of [3H]RTX from human TRPV1 expressed in CHO cells after 60 mins by liquid scintillation counting analysis

T1 sequence (Q8NER1 whole entry): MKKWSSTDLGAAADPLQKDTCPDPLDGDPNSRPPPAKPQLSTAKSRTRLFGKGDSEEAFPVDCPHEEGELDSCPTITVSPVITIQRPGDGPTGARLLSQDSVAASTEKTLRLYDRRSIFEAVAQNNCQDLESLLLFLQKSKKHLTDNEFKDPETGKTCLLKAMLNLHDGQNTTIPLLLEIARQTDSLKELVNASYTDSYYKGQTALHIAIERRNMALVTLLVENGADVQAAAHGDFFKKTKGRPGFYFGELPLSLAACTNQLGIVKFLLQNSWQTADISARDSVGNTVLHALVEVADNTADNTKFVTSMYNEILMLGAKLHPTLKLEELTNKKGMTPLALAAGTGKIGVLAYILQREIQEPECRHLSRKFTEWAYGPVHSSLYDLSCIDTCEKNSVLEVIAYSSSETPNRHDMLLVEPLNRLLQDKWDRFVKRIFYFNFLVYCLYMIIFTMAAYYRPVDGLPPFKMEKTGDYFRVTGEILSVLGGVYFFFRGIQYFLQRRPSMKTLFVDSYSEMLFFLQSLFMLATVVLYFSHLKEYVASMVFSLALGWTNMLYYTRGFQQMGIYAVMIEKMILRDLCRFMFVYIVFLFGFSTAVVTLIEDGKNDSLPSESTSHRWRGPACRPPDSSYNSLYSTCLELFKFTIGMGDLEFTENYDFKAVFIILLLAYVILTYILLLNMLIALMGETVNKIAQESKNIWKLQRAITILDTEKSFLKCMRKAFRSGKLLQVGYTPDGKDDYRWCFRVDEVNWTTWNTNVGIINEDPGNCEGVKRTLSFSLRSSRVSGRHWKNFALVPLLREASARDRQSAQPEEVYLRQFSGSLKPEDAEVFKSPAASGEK

`C=C(C)[C@]12C[C@@H](C)[C@@]34O[C@](Cc5ccccc5)(O[C@@H]1[C@@H]3C=C(COC(=O)Cc1cc(I)c(O)c(OC)c1)C[C@]1(O)C(=O)C(C)=C[C@@H]41)O2` [IODORESINIFERATOXIN] was tested, and the EC50 [1] was “Not Active”.

With `C=C(C)[C@]12C[C@@H](C)[C@@]34O[C@](Cc5ccccc5)(O[C@@H]1[C@@H]3C=C(COC(=O)Cc1ccc(O)c(OC)c1)C[C@]1(O)C(=O)C(C)=C[C@@H]41)O2` [RESINIFERATOXIN] the Ki [2] was “Not Active”.

For `CC(C)(C)C(=O)OC[C@@H](CNC(=S)NCc1ccc(NS(C)(=O)=O)c(F)c1)Cc1ccc(C(C)(C)C)cc1`, the EC50 [1] was “Not Active”, the pKi [2] was 7.03 and the pKi [3] was 7.76.

With `COc1cc(CNC(=S)NC[C@@H](COC(=O)C(C)(C)C)Cc2ccc(C(C)(C)C)cc2)ccc1O` the pEC50 [1] was 8.02, the Ki [2] was “Not Active” and the pKi [3] was 8.18.

For `CC(C)(C)C(=O)OCC(CNC(=S)NCc1ccc(NS(C)(=O)=O)c(F)c1)Cc1ccc(C(C)(C)C)cc1` (racemic), the EC50 [1] was “Not Active”, the pKi [2] was 6.91 and the pKi [3] was 7.64.

In the case of `COc1cc(CNC(=S)NCC(COC(=O)C(C)(C)C)Cc2ccc(C(C)(C)C)cc2)ccc1O` (racemic), the pEC50 [1] was 8.87, the Ki [2] was “Not Active” and the pKi [3] was 8.21.

For `COc1cc(CNC(=S)NC[C@H](COC(=O)C(C)(C)C)Cc2ccc(C(C)(C)C)cc2)ccc1O`, the pEC50 [1] was 9.00, the Ki [2] was “Not Active” and the pKi [3] was 8.51.

`CC(C)(C)C(=O)OC[C@H](CNC(=S)NCc1ccc(NS(C)(=O)=O)c(F)c1)Cc1ccc(C(C)(C)C)cc1` was tested, and the EC50 [1] was “Not Active”, the pKi [2] was 6.79 and the pKi [3] was 7.20.
